Test results: patent US8163724B2, “Glucocorticosteroids, processes for their preparation, pharmaceutical compositions containing them and their use in therapy” (AstraZeneca AB, priority 2007, dated 2012)

These molecules were tested against T1, recombinant human GR (Homo sapiens, UniProt P04150) (assay: Human Glucocorticoid Receptor (GR) Assay (fluorescence polarization, Panvera/Invitrogen kit)). Conditions: fluorescence polarization; GS Red tracer; 2 hours at room temperature; 100% control 10 μM Dexamethasone; read-out: Inhibition of GR binding, IC50.
T1 construct: purchased Panvera/Invitrogen P2812 (kit P2893)
T1 sequence (P04150 1-777): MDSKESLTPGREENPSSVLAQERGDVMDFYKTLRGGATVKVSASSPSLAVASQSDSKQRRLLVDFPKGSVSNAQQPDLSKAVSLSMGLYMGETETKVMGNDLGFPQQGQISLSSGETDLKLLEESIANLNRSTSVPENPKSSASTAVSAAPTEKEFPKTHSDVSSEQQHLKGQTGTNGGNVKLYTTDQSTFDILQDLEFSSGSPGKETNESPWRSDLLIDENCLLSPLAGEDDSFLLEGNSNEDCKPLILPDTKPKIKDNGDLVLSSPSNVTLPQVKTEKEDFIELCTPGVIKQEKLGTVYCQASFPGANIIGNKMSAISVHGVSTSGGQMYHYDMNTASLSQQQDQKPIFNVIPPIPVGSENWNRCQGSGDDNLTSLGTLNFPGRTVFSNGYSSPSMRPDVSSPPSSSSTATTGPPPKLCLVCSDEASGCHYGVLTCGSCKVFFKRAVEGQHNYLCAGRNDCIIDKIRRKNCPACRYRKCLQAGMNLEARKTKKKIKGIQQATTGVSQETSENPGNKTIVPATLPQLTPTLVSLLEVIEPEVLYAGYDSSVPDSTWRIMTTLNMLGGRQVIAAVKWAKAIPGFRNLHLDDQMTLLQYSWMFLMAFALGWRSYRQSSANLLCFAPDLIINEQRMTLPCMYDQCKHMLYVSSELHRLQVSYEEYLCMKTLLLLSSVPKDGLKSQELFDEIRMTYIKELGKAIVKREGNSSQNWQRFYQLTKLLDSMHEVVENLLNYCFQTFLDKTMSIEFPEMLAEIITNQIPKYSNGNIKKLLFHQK
Assay type: binding
Outline: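 Fluorescence polarization competition with recombinant GR and GS Red fluorescent ligand plus stabilizing peptide and DTT in potassium phosphate/sodium molybdate/EDTA buffer with DMSO. Incubated 2 hours at room temperature in the dark; 0% control DMSO, 100% control 10 μM dexamethasone.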

Row | SMILES | IC50
1 | CNC(=O)[C@@]1(O)CC[C@H]2[C@@H]3CCC4=Cc5c(cnn5-c5ccc(F)cc5)C[C@]4(C)[C@H]3[C@@H](O)C[C@@]21C [Example 70, (1R,3aS,3bS,10aR,10bS,11S,12aS)-7-(4-Fluorophenyl)-1,11-dihydroxy-N,10a,12a-trimethyl-1,2,3,3a,3b,4,5,7,10,10a,10b,11,12,12a-tetradecahydrocyclopenta[5,6]naphtho[1,2-f]indazole-1-carboxamide] | 3.8 nM
2 | COCC(=O)O[C@]1(C(=O)SCC#N)CC[C@H]2[C@@H]3C[C@H](C)C4=Cc5c(cnn5-c5ccc(F)cc5)C[C@]4(C)[C@H]3[C@@H](O)C[C@@]21C [Example 215, (1R,3aS,3bS,5S,10aR,10bS,11S,12aS)-1-{[(Cyanomethyl)sulfanyl]carbonyl}-7-(4-fluorophenyl)-11-hydroxy-5,10a,12a-trimethyl-1,2,3,3a,3b,4,5,7,10,10a,10b,11,12,12a-tetradecahydrocyclopenta[5,6]naphtho[1,2-f]indazol-1-yl methoxyacetate] | 51 nM
3 | CCC(=O)O[C@]1(C(=O)SCC#N)CC[C@H]2[C@@H]3CCC4=Cc5c(cnn5-c5ccc(F)c(C(=O)SCC#N)c5)C[C@]4(C)[C@H]3[C@@H](O)C[C@@]21C [Example 174, (1R,3aS,3bS,10aR,10bS,11S,12aS)-1-{[(Cyanomethyl)sulfanyl]carbonyl}-7-(3-{[(cyanomethyl)sulfanyl]carbonyl}-4-fluorophenyl)-11-hydroxy-10a,12a-dimethyl-1,2,3,3a,3b,4,5,7,10,10a,10,12,12a-tetradecahydrocyclopenta[5,6]naphtho[1,2-f]indazol-1-yl propanoate] | 34 nM
4 | Cn1cccc1C(=O)O[C@]1(C(=O)SCCO)CC[C@H]2[C@@H]3CCC4=Cc5c(cnn5-c5ccc(F)cc5)C[C@]4(C)[C@H]3[C@@H](O)C[C@@]21C [Example 178, (1R,3aS,3bS,10aR,10bS,11S,12aS)-7-(4-Fluorophenyl)-11-hydroxy-1-{[(2-hydroxyethyl)thio]carbonyl}-10a,12a-dimethyl-1,2,3,3a,3b,4,5,7,10a,10b,11,12,12a-tetradecahydrocyclopenta[5,6]naphtho[1,2]-indazol-1-yl 1-methyl-1H-pyrrole-2-carboxylate] | 7.6 nM
5 | C#CCSC(=O)[C@@]1(OC(=O)CC)CC[C@H]2[C@@H]3CCC4=Cc5c(cnn5-c5ccc(F)cc5)C[C@]4(C)[C@H]3[C@@H](O)C[C@@]21C [Example 20, (1R,3aS,3bS,10aR,10bS,11S,12aS)-7-(4-fluorophenyl)-11-hydroxy-10a,12a-dimethyl-1-[(prop-2-yn-1-ylthio)carbonyl]-1,2,3,3a,3b,4,5,7,10,10a,10b,11,12,12a-tetradecaphydrocyclopenta[5,6]naphtho[1,2-f]indazol-1-yl propanoate] | 7.7 nM
6 | C=CCOCc1cc(-n2ncc3c2C=C2CC[C@@H]4[C@H]([C@@H](O)C[C@@]5(C)[C@H]4CC[C@]5(OC(=O)c4ccco4)C(=O)NC)[C@@]2(C)C3)ccc1F [Example 78, (1R,3aS,3bS,10aR,10bS,11S,12aS)-7-{4-Fluoro-3-[(prop-2-en-1-yloxy)methyl]phenyl}-11-hydroxy-10a,12a-dimethyl-1-(methylcarbamoyl)-1,2,3,3a,3b,4,5,7,10,10a,10b,11,12,12a-tetradecahydrocyclopenta[5,6]naphtho[1,2-f]indazol-1-yl furan-2-carboxylate] | 12 nM
7 | CC(=O)O[C@]1(C(=O)CSC#N)CC[C@H]2[C@@H]3CCC4=Cc5c(cnn5-c5ccc(F)cc5)C[C@]4(C)[C@H]3[C@@H](O)C[C@@]21C [Example 130, (1R,3aS,3bS,10aR,10bS,11S,12aS)-7-(4-Fluorophenyl)-11-hydroxy-10a,12a-dimethyl-1-(thiocyanatoacetyl)-1,2,3,3a,3b,4,5,7,10,10a,10b,11,12,12a-tetradecahydrocyclopenta[5,6]naphtho[1,2-f]indazol-1-yl acetate] | 5.9 nM
8 | C[C@]12Cc3cnn(-c4ccnnc4)c3C=C1CC[C@@H]1[C@@H]2[C@@H](O)C[C@@]2(C)[C@H]1CC[C@]2(OC(=O)C1CC1)C(=O)OCC#N [Example 184, Cyanomethyl(1R,3aS,3bS,10aR,10bS,11S,12aS)-1-[(cyclopropylcarbonyl)oxy]-11-hydroxy-10a,12a-dimethyl-7-pyridazin-4-yl-1,2,3,3a,3b,4,5,7,10,10a,10b,11,12,12a-tetradecahydrocyclopenta[5,6]naphtho[1,2-f]indazole-1-carboxylate] | 1.7 nM
9 | C[C@]12Cc3cnn(-c4ccc(F)cc4)c3C=C1CC[C@@H]1[C@@H]2[C@@H](O)C[C@@]2(C)[C@H]1CC[C@]2(OC(=O)c1nccs1)C(=O)SCF [Example 42, (1R,3aS,3bS,10aR,10bS,11S,12aS)-1-{[(Fluoromethyl)thio]carbonyl}-7-(4-fluoro-phenyl)-11-hydroxy-10a,12a-dimethyl-1,2,3,3a,3b,4,5,7,10,10a,10b,11,12,12a-tetradecahydrocyclopenta[5,6]naphtho[1,2-f]indazol-1-yl 1,3-thiazole-2-carboxylate] | 3.2 nM
10 | C[C@]12Cc3cnn(-c4ccc(F)c(CO)c4)c3C=C1CC[C@@H]1[C@@H]2[C@@H](O)C[C@@]2(C)[C@H]1CC[C@]2(OC(=O)c1ccco1)C(=O)OCC#N [Example 79, Cyanomethyl(1R,3aS,3bS,10aR,10bS,11S,12aS)-7-[4-fluoro-3-(hydroxymethyl)phenyl]-1-[(furan-2-ylcarbonyl)oxy]-11-hydroxy-10a,12a-dimethyl-1,2,3,3a,3b,4,5,7,10,10a,10b,11,12,12a-tetradecahydrocyclopenta[5,6]naphtho[1,2-f]indazole-1-carboxylate] | 4.2 nM
11 | CSC(=O)[C@@]1(OC(=O)c2ccco2)CC[C@H]2[C@@H]3CCC4=Cc5c(cnn5-c5ccc(F)nc5)C[C@]4(C)[C@H]3[C@@H](O)C[C@@]21C [Example 167, (1R,3aS,3bS,10aR,10bS,11S,12aS)-7-(6-Fluoropyridin-3-yl)-11-hydroxy-10a,12a-dimethyl-1-[(methylsulfanyl)carbonyl]-1,2,3,3a,3b,4,5,7,10,10a,10b,11,12,12a-tetradecahydrocyclopenta[5,6]naphtho[1,2-f]indazol-1-yl furan-2-carboxylate] | 5.6 nM
12 | C[C@]12Cc3cnn(-c4ccc(F)cc4)c3C=C1CC[C@@H]1[C@@H]2[C@@H](O)C[C@@]2(C)[C@H]1CC[C@]2(OC(=O)c1ccco1)C(=O)SCCCO [Example 92, (1R,3aS,3bS,10aR,10bS,11S,12aS)-7-(4-Fluorophenyl)-11-hydroxy-1-{[(3-hydroxypropyl)sulfanyl]carbonyl}-10a,12a-dimethyl-1,2,3,3a,3b,4,5,7,10,10a,10b,11,12,12a-tetradecahydrocyclopenta[5,6]naphtho[1,2-f]indazol-1-yl furan-2-carboxylate] | 4 nM
13 | COC(=O)c1cccc(-n2ncc3c2C=C2CC[C@@H]4[C@H]([C@@H](O)C[C@@]5(C)[C@H]4CC[C@]5(OC(=O)c4ccco4)C(=O)SCF)[C@@]2(C)C3)c1 [Example 108, (1R,3aS,3bS,10aR,10bS,11S,12aS)-1-{[(Fluoromethyl)sulfanyl]carbonyl}-11-hydroxy-7-[3-(methoxycarbonyl)phenyl]-10a,12a-dimethyl-1,2,3,3a,3b,4,5,7,10,10a,10b,11,12,12a-tetradecahydrocyclopenta[5,6]naphtho[1,2-f]indazol-1-yl furan-2-carboxylate] | 6.6 nM
14 | CCC(=O)O[C@]1(C(=O)SCC2CC2)CC[C@H]2[C@@H]3CCC4=Cc5c(cnn5-c5ccc(F)cc5)C[C@]4(C)[C@H]3[C@@H](O)C[C@@]21C [Example 25, (1R,3aS,3bS,10aR,10bS,11S,12aS)-1-{[(Cyclopropylmethyl)thio]carbonyl}-7-(4-fluorophenyl)-11-hydroxy-10a,12a-dimethyl-1,2,3,3a,3b,4,5,7,10,10a,10b,11,12,12a-tetradecahydrocyclopenta[5,6]naphtho[1,2-f]indazol-1-yl propanoate] | 10 nM
15 | C[C@]12Cc3cnn(-c4ccc(F)cc4)c3C=C1CC[C@@H]1[C@@H]2[C@@H](O)C[C@@]2(C)[C@H]1CC[C@]2(OC(=O)C1CC1)C(=O)SCC#N [Example 35, (1R,3aS,3bS,10aR,10bS,11S,12aS)-1-{[(Cyanomethyl)thio]carbonyl}-7-(4-fluoro-Phenyl)-11-hydroxy-10a,12a-dimethyl-1,2,3,3a,3b,4,5,7,10,10a,10b,11,12,12a-tetradecahydrocyclopenta[5,6]naphtho[1,2-f]indazol-1-yl cyclopropanecarboxylate] | 5 nM
